Experimental data reported in patent US8337851B2, “Methods of monitoring the efficacy of anti-CD40 antibodies in treating a subject for a CD40-expressing cancer” (Novartis AG, priority 2005, dated 2012).
Entries after “also recorded” stand apart in the source; their conditions may differ.

Assays:
[1] = system: B-CLL cells from patients; assay: RT-PCR timecourse of transcripts in B-CLL cells; type: cell-based, human; conditions: 10 μg/mL with sCD40L, vs IgG1
Description: Cell pellets were collected at 0 hr (no CD40L), 1, 4 and 24 hr and lysed simultaneously at the end. RNA was isolated using the RNeasy kit, and cDNA was prepared using the ABI RT kit. Two-step RT-PCR was done with the genes shown in two separate reactions, based on TM of each set of oligos.

CLL patient samples = assay: p-p38 status in multiple B-CLL patient samples; type: cell-based, human; conditions: CLL patients with high or low basal p-p38; CD40L stimulation
Source text: Patients with low basal p-p38 activity have a higher induction of phosphorylation by CD40L stimulation than patients with a higher basal expression.

ARH-77 cells = assay: ADCC, Calcein release with human NK cells, ARH-77; type: cell-based; conditions: NK:target 10 to 1, 4 hours, read-out: ED50 (percent specific lysis)
Description: Human MM cell lines, KMS-12-BM, IM-9, and ARH-77, were washed 3 times using R2 medium (Pheno red-free RPMI with 2% FBS) and re-suspended in R10 medium (Pheno red-free RPMI with 10% FBS) at the density of 1×10^6/mL. Cells were labeled by adding Calcein AM (final concentration […]) and incubating for 30 minutes at 37° C. in a humidified atmosphere with 5% CO2. Purified human NK cells and Calcein-labeled target cells were mixed in R10 medium at the ratio of 10 to 1 (5×10^4 NK cells and 5×10^3 target cells in […]) and added in U-bottom 96 well plate (Packard's Instrument, Meriden, Conn.). […] 1% NP-40 was added in 3 wells for the maximum cell lysis. Cells were incubated for 4 hours without disturbance at 37° C. in a humidified atmosphere with 5% CO2. The plate was then centrifuged at 300 rpm without brake for 5 minutes. […] supernatant was transferred into a new 96 well plate. The released Calcein in the supernatant was measured in arbitrary fluorescent unit (AFU) at 485 nm excitation and 535 nm emission using Tecan SpectraFluor Plus (Tecan U.S., Inc., Research Triangle, N.C.). The percent of specific lysis was calculated as: 100×(AFU test−AFU spontaneous release)/(AFU maximal release−AFU spontaneous release).
The ED50 was determined for each cell line by plotting the log of antibody concentration versus the percent specific lysis (see FIG. 16).

[2] = system: human lymphocytes from normal subjects; assay: Proliferation of human lymphocytes; type: cell-based
[3] = system: B cells from normal human subjects; assay: In vitro CD40 ligand-mediated proliferation of normal B cells; type: cell-based
Source text: 2, 2000, and PCT International Application No. PCT/US01/30857, also titled “Human Anti-CD40 Antibodies,” filed Oct. 2, 2001, both of which are herein incorporated by reference in their entirety.
4, 2003, Nov. 26, 2003, and Apr. 27, 2004, and assigned U.S. Patent Application Nos. 60/517,337, 60/525,579, and 60/565,710, respectively, and International Patent Application No. PCT/US2004/037152, also entitled “Antagonist, Anti-CD40 Monoclonal Antibodies and Methods for Their Use,” filed Nov. 4, 2004; the contents of each of which are herein incorporated by reference in their entirety.

B-CLL cells = assay: cPARP flow cytometry of CLL patient PBMCs; type: cell-based, human; conditions: 24 hours, 10 μg/ml
Description: [formula] cPARP analysis by flow cytometry was performed after 24 hours in culture. Cells were treated with FACSLysis buffer (BD Biosciences) and frozen. After fixation in 1% formaldehyde for 45 min, cells were washed and incubated with PE-conjugated mouse anti-human CD19 for 30 min at room temperature (RT). Cells were then permeabilized using 70% ethanol on ice for 30 min and stained for 30 min at RT with rabbit anti-human cPARP antibody or isotype control rabbit IgG along with PerCP-Cy5.5-labeled mouse anti-human CD5. This was followed by incubation with goat anti-rabbit IgG-AlexaFluor 647 for 30 min at RT before fixing with 1% formaldehyde and analyzing by flow cytometry. Percent blockade was calculated as follows: […]

[4] = system: IM-9 tumor cells (a human multiple myeloma cell line); assay: Unstaged orthotopic IM-9 xenograft conditional survival model; type: in vivo, SCID mice; conditions: 0.1, 1 or 10 mg/kg i.p. once a week from one day after implantation

**Q.** Which results are given for “CHIR-12.12: fully human anti-CD40 monoclonal antibody of the IgG1 isotype from hybridoma cell line 153.8E2.D10.D6.12.12 (ATCC PTA-5543)”?
**A.** RNA expression of CD40, CD40L, VEGF, TRAF2 and TRAF3 ([1]; 1, 4, 24 hr): inhibition of RNA expression; RNA expression of IL-6 [1]: no transcriptional changes; RNA expression of TRAF6 and Mcl-1 [1]: minor down-regulation; p-p38 levels (CLL patient samples): lowered p-p38 levels back to basal phosphorylation; EC50 (ARH-77 cells): 0.0239 nM; CD40L-induced lymphocyte proliferation [2]: inhibits CD40L-induced lymphocyte proliferation; induction of lymphocyte proliferation (agonist activity) ([2]; antibody alone): do not induce strong proliferation of human lymphocytes from normal subjects; also recorded: does not induce the proliferation of human peripheral blood lymphocytes; effect on proliferation of normal B cells [3]: act as antagonist anti-CD40 antibodies; also recorded: inhibit in vitro CD40 ligand-mediated proliferation of normal B cells; blockade of CD40L-promoted survival (B-CLL cells): in each case, these effects were blocked; survival of tumor-bearing mice [4]: prolonged the survival of tumor-bearing mice
